Measured values taken from patent US20140051679A1, “KINASE INHIBITORS AND METHOD OF TREATING CANCER WITH SAME” (UNIVERISTY HEALTH NETWORKS, priority 2011, published 2014).

Columns and labels:
[1] = tested on: HCT116 colon cancer cells; assay: Cell growth inhibition, Sulforhodamine B assay, HCT116; type: cell-based; conditions: Homo sapiens, HCT-116, 120 h, 5 days culture, SRB assay, read-out: Cell Line GI50 Range HCT116
human PLK4 = biological target: T1, human PLK4 (Homo sapiens, UniProt O00444); assay: PLK4 inhibition assay (indirect ELISA); type: biochemical; conditions: GST-PLK4 4 nM, 15 μM ATP; read-out: IC50 Ranges PLK4
T1 construct: amino terminal GST fusion of residues 1-391 of human PLK4; made in house; host or cells: E. coli
T1 sequence (O00444 1-391): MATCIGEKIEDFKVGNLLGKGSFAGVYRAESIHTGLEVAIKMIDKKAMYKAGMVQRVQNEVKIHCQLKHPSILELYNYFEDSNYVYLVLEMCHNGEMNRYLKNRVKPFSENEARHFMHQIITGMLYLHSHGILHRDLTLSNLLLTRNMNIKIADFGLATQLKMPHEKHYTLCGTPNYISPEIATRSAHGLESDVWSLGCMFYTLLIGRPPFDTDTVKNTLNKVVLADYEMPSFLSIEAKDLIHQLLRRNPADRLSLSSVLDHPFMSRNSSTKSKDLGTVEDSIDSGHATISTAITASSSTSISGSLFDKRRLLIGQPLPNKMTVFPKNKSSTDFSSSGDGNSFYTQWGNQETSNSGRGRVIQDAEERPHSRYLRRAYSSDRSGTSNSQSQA
How it was run: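 Dephosphorylated GST-tagged human PLK4 (residues 1-391, E. coli), 4 nM, preincubated 15 min with compound, then reacted 30 min with 15 μM ATP on MBP-coated plates (50 mM HEPES pH 7.5, 10 mM MgCl2, 0.01% Brij 35). Phospho-MBP detected by antibody ELISA at 450 nm. Tested at 10 μM or 10-point titrations; IC50 from 4-parameter logistic fit.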

[2] = tested on: MDA-MB-468 breast cancer cells; assay: Cell growth inhibition, Sulforhodamine B assay, MDA-MB-468; type: cell-based; conditions: Homo sapiens, 120 h, 5 days culture, SRB assay, read-out: Cell Line GI50 Range MDA-MB-468
[3] = tested on: Ovarian TICs, 2393A ovarian; assay: Ovarian tumor-initiating cell growth inhibition (Alamar Blue); type: cell-based; conditions: 144 h, 6 days, read-out: GI50 range 2393A ovarian
[4] = tested on: PA-1 ovarian cancer cells; assay: Cell growth inhibition, Sulforhodamine B assay, PA-1; type: cell-based; conditions: 120 h, 5 days culture, SRB assay, read-out: Cell Line GI50 Range PA-1
human TTK = biological target: T2, human TTK (Homo sapiens, UniProt P33981); assay: TTK inhibition assay (indirect ELISA); type: biochemical; conditions: GST-TTK 0.68 nM, 16 μM ATP; read-out: IC50 Ranges TTK
T2 construct: amino terminal GST fusion of full length human TTK; purchased Invitrogen
T2 sequence (P33981 1-857): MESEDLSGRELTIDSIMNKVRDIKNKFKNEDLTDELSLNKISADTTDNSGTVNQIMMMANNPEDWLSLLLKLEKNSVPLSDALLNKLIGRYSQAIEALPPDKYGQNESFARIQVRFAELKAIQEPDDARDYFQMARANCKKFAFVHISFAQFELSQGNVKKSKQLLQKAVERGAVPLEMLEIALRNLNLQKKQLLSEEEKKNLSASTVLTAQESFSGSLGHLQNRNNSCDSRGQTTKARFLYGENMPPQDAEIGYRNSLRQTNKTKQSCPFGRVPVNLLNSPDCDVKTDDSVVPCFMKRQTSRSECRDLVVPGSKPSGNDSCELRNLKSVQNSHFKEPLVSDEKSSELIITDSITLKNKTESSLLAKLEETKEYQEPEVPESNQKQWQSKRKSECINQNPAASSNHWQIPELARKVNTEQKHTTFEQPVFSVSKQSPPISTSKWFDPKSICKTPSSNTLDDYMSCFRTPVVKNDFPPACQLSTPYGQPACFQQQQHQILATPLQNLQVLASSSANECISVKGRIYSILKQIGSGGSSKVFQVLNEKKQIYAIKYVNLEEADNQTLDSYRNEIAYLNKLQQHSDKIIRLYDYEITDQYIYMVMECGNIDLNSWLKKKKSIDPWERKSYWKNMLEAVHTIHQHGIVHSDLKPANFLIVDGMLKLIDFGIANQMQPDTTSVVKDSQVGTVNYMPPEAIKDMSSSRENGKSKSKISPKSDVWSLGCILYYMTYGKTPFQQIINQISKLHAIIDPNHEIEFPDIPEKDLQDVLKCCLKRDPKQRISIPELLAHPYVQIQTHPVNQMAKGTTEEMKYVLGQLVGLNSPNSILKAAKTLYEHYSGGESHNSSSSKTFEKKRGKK

[5] = tested on: OVCAR-3 ovarian cancer cells; assay: Cell growth inhibition, Sulforhodamine B assay, OVCAR-3; type: cell-based; conditions: Homo sapiens, 120 h, 5 days culture, SRB assay, read-out: Cell Line GI50 Range OVCAR-3
[6] = tested on: Colon tumor initiating cells (TICs), 12 colon; assay: Colon tumor-initiating cell growth inhibition (Alamar Blue); type: cell-based; conditions: 216 h, 9 days, read-out: GI50 range 12 colon
HT29 colon cancer cells = assay: Cell growth inhibition, Sulforhodamine B assay, HT29; type: cell-based; conditions: Homo sapiens, HT-29, 120 h, 5 days culture, SRB assay, read-out: Cell Line GI50 Range HT29
Aurora B = biological target: T3, Aurora B (Homo sapiens, UniProt Q96GD4); assay: Aurora B inhibition assay (Z-Lyte); type: biochemical; conditions: 28 nM Aurora B, 128 μM ATP; read-out: IC50 Ranges Aurora B
T3 construct: purchased Invitrogen PV3970
T3 sequence (Q96GD4 whole entry): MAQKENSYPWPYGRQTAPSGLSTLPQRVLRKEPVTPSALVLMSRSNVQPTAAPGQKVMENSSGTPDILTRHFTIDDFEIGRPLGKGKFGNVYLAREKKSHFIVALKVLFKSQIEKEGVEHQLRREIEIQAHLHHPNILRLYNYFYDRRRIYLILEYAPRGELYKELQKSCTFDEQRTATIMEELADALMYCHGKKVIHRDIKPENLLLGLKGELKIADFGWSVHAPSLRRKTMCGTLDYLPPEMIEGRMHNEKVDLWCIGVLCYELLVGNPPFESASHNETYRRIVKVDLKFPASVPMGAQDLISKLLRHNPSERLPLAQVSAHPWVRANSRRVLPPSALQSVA
Procedure: Aurora B inhibition was determined using the Z-Lyte assay kit from Invitrogen. The assay was performed using the recommended manufacturer's instructions with 128 μM ATP and 28 nM Aurora B (Invitrogen cat #PV3970). The % inhibition values were determined according to the manufacturer's directions and IC50 values were obtained using a non-linear 4 point logistic curve fit (XLfit4, IDBS)

[7] = tested on: MDA-MB-231 breast cancer cells; assay: Cell growth inhibition, Sulforhodamine B assay, MDA-MB-231; type: cell-based; conditions: Homo sapiens, 120 h, 5 days culture, SRB assay, read-out: Cell Line GI50 Range MDA-MB-231

| SMILES | GI50 [1] [µM] | IC50 (human PLK4) [µM] | GI50 [2] [µM] | GI50 [3] [µM] | GI50 [4] [µM] | IC50 (human TTK) [µM] | GI50 [5] [µM] | GI50 [6] [µM] | GI50 (HT29 colon cancer cells) [µM] | IC50 (Aurora B) [µM] | GI50 [7] [µM] |
| --- | --- | --- | --- | --- | --- | --- | --- | --- | --- | --- | --- |
| O=C(NC(c1ccccn1)C1CC1)c1ccc2[nH]nc(-c3ccc(OC4CCN(C5COC5)CC4)cc3)c2c1 (centres unmarked) [Example A171, N-(cyclopropyl(pyridin-2-yl)methyl)-3-(4-((1-(oxetan-3-yl)piperidin-4-yl)oxy)phenyl)-1H-indazole-5-carboxamide] | ≤ 5 | ≤ 5 | ≤ 5 | ≤ 5 | ≤ 5 | ≤ 5 | ≤ 5 | ≤ 5 | ≤ 5 | ≤ 5 |  |
| CN1CCC(Oc2ccc(-c3n[nH]c4ccc(C(=O)N[C@H](c5sccc5Cl)C5CC5)cc34)cc2)CC1 [Example A167, (S)—N-((3-chlorothiophen-2-yl)(cyclopropyl)methyl)-3-(4-((1-methylpiperidin-4-yl)oxy)phenyl)-1H-indazole-5-carboxamide] | ≤ 5 | ≤ 5 | ≤ 5 | ≤ 5 | ≤ 5 | ≤ 5 |  | ≤ 5 | ≤ 5 | ≤ 5 |  |
| CC[C@H](NC(=O)c1ccc2[nH]nc(-c3ccc(OC4CCN(C5COC5)CC4)cc3)c2c1)c1ccccc1Cl [Example A193, (S)—N-(1-(2-chlorophenyl)propyl)-3-(4-((1-(oxetan-3-yl)piperidin-4-yl)oxy)phenyl)-1H-indazole-5-carboxamide] | ≤ 5 | ≤ 5 | ≤ 5 | ≤ 5 | ≤ 5 | ≤ 5 | ≤ 5 | ≤ 5 |  | ≤ 5 | ≤ 5 |
| CC1(O)CCN(c2ccc(-c3n[nH]c4ccc(NC(=O)C(c5ccsc5)N5CCCC5)cc34)cc2)CC1 (centres unmarked) [Example A89, N-(3-(4-(4-hydroxy-4-methylpiperidin-1-yl)phenyl)-1H-indazol-5-yl)-2-(pyrrolidin-1-yl)-2-(thiophen-3-yl)acetamide] | ≤ 5 | ≤ 5 | ≤ 5 | ≤ 5 | ≤ 5 | ≤ 5 |  | ≤ 5 | ≤ 5 | ≤ 5 |  |
| O=C(Nc1ccc2[nH]nc(-c3ccc(OC4CCN(C5COC5)CC4)cc3)c2c1)C(c1ccsc1)N1CCCC1 (centres unmarked) [Example A184, N-(3-(4-((1-(oxetan-3-yl)piperidin-4-yl)oxy)phenyl)-1H-indazol-5-yl)-2-(pyrrolidin-1-yl)-2-(thiophen-3-yl)acetamide] | ≤ 5 | ≤ 5 | ≤ 5 | ≤ 5 | ≤ 5 | ≤ 5 |  | ≤ 5 |  | ≤ 5 | ≤ 5 |

Second part, the compound after the results:

| GI50 [1] [µM] | IC50 (human PLK4) [µM] | GI50 [2] [µM] | GI50 [3] [µM] | GI50 [4] [µM] | IC50 (human TTK) [µM] | GI50 [5] [µM] | GI50 [6] [µM] | GI50 (HT29 colon cancer cells) [µM] | IC50 (Aurora B) [µM] | GI50 [7] [µM] | SMILES |
| --- | --- | --- | --- | --- | --- | --- | --- | --- | --- | --- | --- |
| ≤ 5 | ≤ 5 | ≤ 5 | ≤ 5 | ≤ 5 | ≤ 5 |  | ≤ 5 | ≤ 5 | ≤ 5 |  | O=CN1CCC(Oc2ccc(-c3n[nH]c4ccc(C(=O)NC(c5ccccn5)C5CC5)cc34)cc2)CC1 (centres unmarked) [Example A160, N-(cyclopropyl(pyridin-2-yl)methyl)-3-(4-((1-formylpiperidin-4-yl)oxy)phenyl)-1H-indazole-5-carboxamide] |
| ≤ 5 | ≤ 5 | ≤ 5 | ≤ 5 | ≤ 5 | ≤ 5 | ≤ 5 | ≤ 5 |  | ≤ 5 | ≤ 5 | CN1CCC(Oc2ccc(-c3n[nH]c4ccc(NC(=O)C(c5ccsc5)N5CCC5)cc34)cc2)CC1 (centres unmarked) [Example A191, 2-(azetidin-1-yl)-N-(3-(4-((1-methylpiperidin-4-yl)oxy)phenyl)-1H-indazol-5-yl)-2-(thiophen-3-yl)acetamide] |
| ≤ 5 | ≤ 5 | ≤ 5 | ≤ 5 | ≤ 5 | ≤ 5 | ≤ 5 | ≤ 5 |  | ≤ 5 | ≤ 5 | CN1CCC(Oc2ccc(-c3n[nH]c4ccc(NC(=O)C(OC5CCCC5)c5ccccc5)cc34)cc2)CC1 (centres unmarked) [Example A183, 2-(cyclopentyloxy)-N-(3-(4-((1-methylpiperidin-4-yl)oxy)phenyl)-1H-indazol-5-yl)-2-phenylacetamide] |
| ≤ 5 | ≤ 5 | ≤ 5 | ≤ 5 | ≤ 5 | ≤ 5 |  | ≤ 5 | ≤ 5 | ≤ 5 |  | O=CN1CCC(Oc2ccc(-c3n[nH]c4ccc(NC(=O)C(c5ccsc5)N5CCCC5)cc34)cc2)CC1 (centres unmarked) [Example A118] |
| ≤ 5 | ≤ 5 | ≤ 5 | ≤ 5 | ≤ 5 | ≤ 5 | ≤ 5 | ≤ 5 |  |  | ≤ 5 | CCOC(C(=O)Nc1ccc2[nH]nc(-c3ccc(OC4CCN(C)CC4)cc3)c2c1)c1ccccc1 (centres unmarked) [Example A181, 2-ethoxy-N-(3-(4-((1-methylpiperidin-4-yl)oxy)phenyl)-1H-indazol-5-yl)-2-phenylacetamide] |
| ≤ 5 | ≤ 5 | ≤ 5 | ≤ 5 | ≤ 5 | ≤ 5 | ≤ 5 | ≤ 5 |  | ≤ 5 | ≤ 5 | CC(C)OC(C(=O)Nc1ccc2[nH]nc(-c3ccc(OC4CCN(C)CC4)cc3)c2c1)c1ccccc1 (centres unmarked) [Example A187, 2-isopropoxy-N-(3-(4-((1-methylpiperidin-4-yl)oxy)phenyl)-1H-indazol-5-yl)-2-phenylacetamide] |
| ≤ 5 | ≤ 5 | ≤ 5 | ≤ 5 | ≤ 5 | ≤ 5 | 5 to 20 | ≤ 5 | ≤ 5 |  |  | CO[C@@H](C(=O)Nc1ccc2[nH]nc(-c3ccc(OC4CCN(C=O)CC4)cc3)c2c1)c1ccccc1 [Example A169, (R)—N-(3-(4-((1-formylpiperidin-4-yl)oxy)phenyl)-1H-indazol-5-yl)-2-methoxy-2-phenylacetamide] |
